{"source": "ChEMBL document CHEMBL2375213", "about": "“Synthesis and anticancer activity of novel spiro-isoxazoline and spiro-isoxazolidine derivatives of α-santonin” (Eur J Med Chem, 2013)", "type_in_all_cases": "functional, cell-based", "key": {"PC-3": {"test_system": "PC-3", "test": "Antiproliferative activity against human PC3 cells after 48 hrs by sulforhodamine B assay", "details": "PC-3, 48 h"}, "THP-1": {"test_system": "THP-1", "test": "Antiproliferative activity against human THP1 cells after 48 hrs by sulforhodamine B assay", "details": "THP-1, 48 h"}, "HEp-2": {"test_system": "HEp-2", "test": "Antiproliferative activity against human Hep2 cells after 48 hrs by sulforhodamine B assay", "details": "HEp-2, 48 h"}, "HCT-116": {"test_system": "HCT-116", "test": "Antiproliferative activity against human HCT116 cells after 48 hrs by sulforhodamine B assay", "details": "HCT-116, 48 h"}, "MCF7": {"test_system": "MCF7", "test": "Antiproliferative activity against human MCF7 cells after 48 hrs by sulforhodamine B assay", "details": "MCF7, 48 h"}, "A549": {"test_system": "A549", "test": "Antiproliferative activity against human A549 cells after 48 hrs by sulforhodamine B assay", "details": "A549, 48 h"}}}
{"compound": "CC1=C2[C@H]3OC(=O)C4(CC(c5ccc(F)cc5)=NO4)[C@@H]3CC[C@@]2(C)C=CC1=O", "note": "(stereo partly specified)", "values": [{"measurement": "IC50", "setting": "PC-3", "result": 100, "unit": "µM"}, {"measurement": "IC50", "setting": "THP-1", "result": 100, "unit": "µM"}, {"measurement": "IC50", "setting": "HEp-2", "result": 100, "unit": "µM"}, {"measurement": "IC50", "setting": "HCT-116", "result": 100, "unit": "µM"}, {"measurement": "IC50", "setting": "MCF7", "result": 100, "unit": "µM"}, {"measurement": "IC50", "setting": "A549", "result": 61, "unit": "µM"}]}
{"compound": "COc1cccc2c1C(=O)c1c(O)c3c(c(O)c1C2=O)C[C@@](O)(C(=O)CO)C[C@@H]3O[C@H]1C[C@H](N)[C@H](O)[C@H](C)O1", "note": "[DOXORUBICIN]", "values": [{"measurement": "IC50", "setting": "PC-3", "result": 6, "unit": "µM"}, {"measurement": "IC50", "setting": "MCF7", "result": 0.5, "unit": "µM"}]}
{"compound": "O=c1[nH]cc(F)c(=O)[nH]1", "note": "[FLUOROURACIL]", "values": [{"measurement": "IC50", "setting": "PC-3", "result": 2.2, "unit": "µM"}, {"measurement": "IC50", "setting": "THP-1", "result": 1, "unit": "µM"}, {"measurement": "IC50", "setting": "HEp-2", "result": 4.5, "unit": "µM"}, {"measurement": "IC50", "setting": "A549", "result": 4.9, "unit": "µM"}]}
{"compound": "CC1=C2[C@H]3OC(=O)C4(CC(c5ccc(Cl)cc5Cl)=NO4)[C@@H]3CC[C@@]2(C)C=CC1=O", "note": "(stereo partly specified)", "values": [{"measurement": "IC50", "setting": "PC-3", "result": 26, "unit": "µM"}, {"measurement": "IC50", "setting": "THP-1", "result": 35, "unit": "µM"}, {"measurement": "IC50", "setting": "HEp-2", "result": 29, "unit": "µM"}, {"measurement": "IC50", "setting": "HCT-116", "result": 29, "unit": "µM"}, {"measurement": "IC50", "setting": "MCF7", "result": 95, "unit": "µM"}, {"measurement": "IC50", "setting": "A549", "result": 13, "unit": "µM"}]}
{"compound": "COc1ccc([C@@H]2CC3(ON2c2ccccc2)C(=O)O[C@@H]2C4=C(C)C(=O)C=C[C@]4(C)CC[C@H]23)cc1Br", "note": "(stereo partly specified)", "values": [{"measurement": "IC50", "setting": "PC-3", "result": 0.1, "unit": "µM"}, {"measurement": "IC50", "setting": "THP-1", "result": 100, "unit": "µM"}, {"measurement": "IC50", "setting": "HEp-2", "result": 100, "unit": "µM"}, {"measurement": "IC50", "setting": "HCT-116", "result": 45, "unit": "µM"}, {"measurement": "IC50", "setting": "MCF7", "result": 50, "unit": "µM"}, {"measurement": "IC50", "setting": "A549", "result": 2.7, "unit": "µM"}]}
{"compound": "CC1=C2[C@H]3OC(=O)C4(CC(c5ccc6ccccc6c5)=NO4)[C@@H]3CC[C@@]2(C)C=CC1=O", "note": "(stereo partly specified)", "values": [{"measurement": "IC50", "setting": "PC-3", "result": 0.6, "unit": "µM"}, {"measurement": "IC50", "setting": "THP-1", "result": 0.4, "unit": "µM"}, {"measurement": "IC50", "setting": "HEp-2", "result": 100, "unit": "µM"}, {"measurement": "IC50", "setting": "HCT-116", "result": 100, "unit": "µM"}, {"measurement": "IC50", "setting": "MCF7", "result": 30, "unit": "µM"}, {"measurement": "IC50", "setting": "A549", "result": 2.9, "unit": "µM"}]}
{"compound": "CC1=C2[C@H]3OC(=O)C4(CC(c5ccccc5)=NO4)[C@@H]3CC[C@@]2(C)C=CC1=O", "note": "(stereo partly specified)", "values": [{"measurement": "IC50", "setting": "PC-3", "result": 78, "unit": "µM"}, {"measurement": "IC50", "setting": "THP-1", "result": 100, "unit": "µM"}, {"measurement": "IC50", "setting": "HEp-2", "result": 100, "unit": "µM"}, {"measurement": "IC50", "setting": "HCT-116", "result": 100, "unit": "µM"}, {"measurement": "IC50", "setting": "MCF7", "result": 100, "unit": "µM"}, {"measurement": "IC50", "setting": "A549", "result": 100, "unit": "µM"}]}
{"compound": "CC1=C2[C@H]3OC(=O)C4(CC(c5cccc(F)c5)=NO4)[C@@H]3CC[C@@]2(C)C=CC1=O", "note": "(stereo partly specified)", "values": [{"measurement": "IC50", "setting": "PC-3", "result": 100, "unit": "µM"}, {"measurement": "IC50", "setting": "THP-1", "result": 100, "unit": "µM"}, {"measurement": "IC50", "setting": "HEp-2", "result": 100, "unit": "µM"}, {"measurement": "IC50", "setting": "HCT-116", "result": 100, "unit": "µM"}, {"measurement": "IC50", "setting": "MCF7", "result": 0.4, "unit": "µM"}, {"measurement": "IC50", "setting": "A549", "result": 0.7, "unit": "µM"}]}
{"compound": "CC1=C2[C@H]3OC(=O)C4(CC(c5ccc(O)cc5)=NO4)[C@@H]3CC[C@@]2(C)C=CC1=O", "note": "(stereo partly specified)", "values": [{"measurement": "IC50", "setting": "PC-3", "result": 55, "unit": "µM"}, {"measurement": "IC50", "setting": "THP-1", "result": 100, "unit": "µM"}, {"measurement": "IC50", "setting": "HEp-2", "result": 40, "unit": "µM"}, {"measurement": "IC50", "setting": "HCT-116", "result": 8.2, "unit": "µM"}, {"measurement": "IC50", "setting": "MCF7", "result": 100, "unit": "µM"}, {"measurement": "IC50", "setting": "A549", "result": 3.8, "unit": "µM"}]}
{"compound": "CC1=C2[C@H]3OC(=O)C4(C[C@@H](c5cccc6ccccc56)N(c5ccccc5)O4)[C@@H]3CC[C@@]2(C)C=CC1=O", "note": "(stereo partly specified)", "values": [{"measurement": "IC50", "setting": "PC-3", "result": 0.7, "unit": "µM"}, {"measurement": "IC50", "setting": "THP-1", "result": 59, "unit": "µM"}, {"measurement": "IC50", "setting": "HEp-2", "result": 100, "unit": "µM"}, {"measurement": "IC50", "setting": "HCT-116", "result": 100, "unit": "µM"}, {"measurement": "IC50", "setting": "MCF7", "result": 82, "unit": "µM"}, {"measurement": "IC50", "setting": "A549", "result": 3.3, "unit": "µM"}]}
{"compound": "CC1=C2[C@H]3OC(=O)C4(CC(c5cc(Cl)ccc5Cl)=NO4)[C@@H]3CC[C@@]2(C)C=CC1=O", "note": "(stereo partly specified)", "values": [{"measurement": "IC50", "setting": "PC-3", "result": 100, "unit": "µM"}, {"measurement": "IC50", "setting": "THP-1", "result": 100, "unit": "µM"}, {"measurement": "IC50", "setting": "HEp-2", "result": 100, "unit": "µM"}, {"measurement": "IC50", "setting": "HCT-116", "result": 61, "unit": "µM"}, {"measurement": "IC50", "setting": "MCF7", "result": 39, "unit": "µM"}, {"measurement": "IC50", "setting": "A549", "result": 100, "unit": "µM"}]}
{"compound": "CC1=C2[C@H]3OC(=O)C4(CC(c5c6ccccc6cc6ccccc56)=NO4)[C@@H]3CC[C@@]2(C)C=CC1=O", "note": "(stereo partly specified)", "values": [{"measurement": "IC50", "setting": "PC-3", "result": 0.3, "unit": "µM"}, {"measurement": "IC50", "setting": "THP-1", "result": 0.8, "unit": "µM"}, {"measurement": "IC50", "setting": "HEp-2", "result": 50, "unit": "µM"}, {"measurement": "IC50", "setting": "HCT-116", "result": 45, "unit": "µM"}, {"measurement": "IC50", "setting": "MCF7", "result": 0.2, "unit": "µM"}, {"measurement": "IC50", "setting": "A549", "result": 45, "unit": "µM"}]}
{"compound": "CC1=C2[C@H]3OC(=O)C4(CC(c5ccccc5Cl)=NO4)[C@@H]3CC[C@@]2(C)C=CC1=O", "note": "(stereo partly specified)", "values": [{"measurement": "IC50", "setting": "PC-3", "result": 0.9, "unit": "µM"}, {"measurement": "IC50", "setting": "THP-1", "result": 0.2, "unit": "µM"}, {"measurement": "IC50", "setting": "HEp-2", "result": 7.3, "unit": "µM"}, {"measurement": "IC50", "setting": "HCT-116", "result": 100, "unit": "µM"}, {"measurement": "IC50", "setting": "MCF7", "result": 0.5, "unit": "µM"}, {"measurement": "IC50", "setting": "A549", "result": 5.9, "unit": "µM"}]}
{"compound": "CC1=C2[C@H]3OC(=O)C4(C[C@H](c5cc(Cl)ccc5Cl)N(c5ccccc5)O4)[C@@H]3CC[C@@]2(C)C=CC1=O", "note": "(stereo partly specified)", "values": [{"measurement": "IC50", "setting": "PC-3", "result": 0.7, "unit": "µM"}, {"measurement": "IC50", "setting": "THP-1", "result": 0.2, "unit": "µM"}, {"measurement": "IC50", "setting": "HEp-2", "result": 100, "unit": "µM"}, {"measurement": "IC50", "setting": "HCT-116", "result": 32, "unit": "µM"}, {"measurement": "IC50", "setting": "MCF7", "result": 0.1, "unit": "µM"}, {"measurement": "IC50", "setting": "A549", "result": 77, "unit": "µM"}]}
{"compound": "CC1=C2[C@H]3OC(=O)C4(C[C@H](c5cc(F)cc(F)c5)N(c5ccccc5)O4)[C@@H]3CC[C@@]2(C)C=CC1=O", "note": "(stereo partly specified)", "values": [{"measurement": "IC50", "setting": "PC-3", "result": 0.7, "unit": "µM"}, {"measurement": "IC50", "setting": "THP-1", "result": 25, "unit": "µM"}, {"measurement": "IC50", "setting": "HEp-2", "result": 100, "unit": "µM"}, {"measurement": "IC50", "setting": "HCT-116", "result": 0.09, "unit": "µM"}, {"measurement": "IC50", "setting": "MCF7", "result": 0.09, "unit": "µM"}, {"measurement": "IC50", "setting": "A549", "result": 100, "unit": "µM"}]}
{"compound": "CC1=C2[C@H]3OC(=O)C4(C[C@@H](c5cc(F)cc(F)c5)N(c5ccccc5)O4)[C@@H]3CC[C@@]2(C)C=CC1=O", "note": "(stereo partly specified)", "values": [{"measurement": "IC50", "setting": "PC-3", "result": 1.4, "unit": "µM"}, {"measurement": "IC50", "setting": "THP-1", "result": 0.8, "unit": "µM"}, {"measurement": "IC50", "setting": "HEp-2", "result": 100, "unit": "µM"}, {"measurement": "IC50", "setting": "HCT-116", "result": 28, "unit": "µM"}, {"measurement": "IC50", "setting": "MCF7", "result": 3.9, "unit": "µM"}, {"measurement": "IC50", "setting": "A549", "result": 14, "unit": "µM"}]}
{"compound": "CC1=C2[C@H]3OC(=O)C4(C[C@@H](c5ccc([N+](=O)[O-])cc5)N(c5ccccc5)O4)[C@@H]3CC[C@@]2(C)C=CC1=O", "note": "(single isomer, unassigned)", "values": [{"measurement": "IC50", "setting": "PC-3", "result": 0.6, "unit": "µM"}, {"measurement": "IC50", "setting": "THP-1", "result": 0.1, "unit": "µM"}, {"measurement": "IC50", "setting": "HEp-2", "result": 100, "unit": "µM"}, {"measurement": "IC50", "setting": "HCT-116", "result": 100, "unit": "µM"}, {"measurement": "IC50", "setting": "MCF7", "result": 0.9, "unit": "µM"}, {"measurement": "IC50", "setting": "A549", "result": 66, "unit": "µM"}]}
